≈ marks a conversion by molar mass, not a printed value. Bridge positions count the residues as written; N and C are the ends. Peptide text beside a SMILES is read from it.
Legend:
[1] = test system: Candida biofilm; conditions: cited from earlier work
From the text: (§1) Early and empiric treatment is required due to the rapid emergence of both bacterial and fungal resistance and resilience due to biofilm formation multi-drug resistant organisms and their associated biofilms play a significant role in the pathogenicity and chronicity of wound infections. The resistance of bacteria and fungi residing in biofilms is due to the biofilm matrix acting as a fortified barrier and the presence of slow-growing microbes with poor metabolic activity, known as persisters. The dAMPs direct perturbation of cellular membranes is effective at eradicating biofilms. RP55 ...

[2] = test system: preformed and mature MRSA biofilm; conditions: cited from earlier work
From the text: as §1

[3] = test system: L929 fibroblast cells; experiment: Bioluminescent mammalian cytotoxicity assay; type: cell-based, murine; conditions: L929 fibroblasts, up to 64 μg/mL, 8 h of exposure, bioluminescence
Protocol: Real-time killing of bacterial cells, P. aeruginosa or S. aureus, and mammalian cytotoxicity to assess dAMP off-target toxicity was evaluated using bioluminescent cells. The L929 fibroblast cells (ATCC, Manassas, VA, USA) were made bioluminescent by transfection with a luciferase gene. Cells (1 × 10^4 cells, 100 μL) were plated in 96-well black-walled plates and the candidate dAMPs were 2-fold serially diluted from specified concentrations in growth medium supplemented with 150 μg/mL D-luciferin. Each concentration was performed in triplicate, with the final volume being 200 μL. Imaging was performed at select times after the addition of the dAMP, and compared to concurrently run vehicle-control, using an IVIS Lumina imaging system (Caliper Life Sciences, Inc., Hopkinton, MA, USA). For imaging, the 96-well plate was positioned on the stage (12.5-cm field of view), with an open emission filter, binning of 4, and f-stop 1 and a 1-min exposure time. Monitoring bioluminescence allows assessment of the kinetics of cellular viability as there is a tight correlation between the bioluminescent signal and cell viability. […]
Figure 2 RP504, RP556 and RP557 induce limited mammalian cell toxicity. […] Cells were plated at 1×10^4 cells/well, allowed to adhere overnight and the specific dAMP added, and cytotoxicity evaluated through 8 h. […]

[4] = test system: Candida krusei Y-27825; type: cell-based; conditions: potato dextrose broth, 24 h, 37 °C, OD600 <0.1 in at least 3 of 4 wells, dose range 2 to 128 µg/mL; shaded values previously reported ref 17
How it was run: (§2)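 Bacteria grown overnight in trypticase soy broth at 37 °C, diluted to ~10^6 CFU/mL in 2X cation-adjusted Mueller–Hinton broth and exposed to dAMPs at 0–128 μg/mL; fungus run in potato dextrose broth. After 24 h at 37 °C, MIC was lowest concentration with ≥3 of 4 wells at OD600 <0.1.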

[5] = test system: Candida albicans Y-326; type: cell-based; conditions: potato dextrose broth, 24 h, 37 °C, OD600 <0.1 in at least 3 of 4 wells, dose range 2 to 128 µg/mL; shaded values previously reported ref 17
How it was run: as §2

[6] = test system: E. cloacae 6054; type: cell-based; conditions: cation adjusted Mueller-Hinton broth, ~10^6 CFU/mL, 24 h, 37 °C, OD600 <0.1 in at least 3 of 4 wells, 2-128 μg/mL; shaded values previously reported ref 18
How it was run: as §2

[7] = test system: Aspergillus flavus MYA-3651; type: cell-based; conditions: potato dextrose broth, 24 h, 37 °C, OD600 <0.1 in at least 3 of 4 wells, dose range 2 to 128 µg/mL; shaded values previously reported ref 17
How it was run: as §2

[8] = test system: Aspergillus flavus MYA-1004; type: cell-based; conditions: potato dextrose broth, 24 h, 37 °C, OD600 <0.1 in at least 3 of 4 wells, dose range 2 to 128 µg/mL; shaded values previously reported ref 17
How it was run: as §2

[9] = test system: Fusarium solani NRRL 28548; type: cell-based; conditions: potato dextrose broth, 24 h, 37 °C, OD600 <0.1 in at least 3 of 4 wells, dose range 2 to 128 µg/mL; shaded values previously reported ref 17
How it was run: as §2

[10] = test system: Absidia corymbifera NRRL 6251; type: cell-based; conditions: potato dextrose broth, 24 h, 37 °C, OD600 <0.1 in at least 3 of 4 wells, dose range 2 to 128 µg/mL; shaded values previously reported ref 17
How it was run: as §2

[11] = test system: Candida parapsilosis Y-1761; type: cell-based; conditions: potato dextrose broth, 24 h, 37 °C, OD600 <0.1 in at least 3 of 4 wells, dose range 2 to 128 µg/mL; shaded values previously reported ref 17
How it was run: as §2

[12] = test system: Mucor circinelloides NRRL 3631; type: cell-based; conditions: potato dextrose broth, 24 h, 37 °C, OD600 <0.1 in at least 3 of 4 wells, dose range 2 to 128 µg/mL; shaded values previously reported ref 17
How it was run: as §2

[13] = test system: Aspergillus fumigatus 9651; type: cell-based; conditions: potato dextrose broth, 24 h, 37 °C, OD600 <0.1 in at least 3 of 4 wells, dose range 2 to 128 µg/mL; shaded values previously reported ref 17
How it was run: as §2

[14] = test system: S. epidermis ATCC 51625; type: cell-based; conditions: cation adjusted Mueller-Hinton broth, ~10^6 CFU/mL, 24 h, 37 °C, OD600 <0.1 in at least 3 of 4 wells, 2-128 μg/mL; shaded values previously reported ref 18
How it was run: as §2

[15] = test system: Candida krusei Y-27803; type: cell-based; conditions: potato dextrose broth, 24 h, 37 °C, OD600 <0.1 in at least 3 of 4 wells, dose range 2 to 128 µg/mL; shaded values previously reported ref 17
How it was run: as §2

[16] = test system: Candida parapsilosis Y-1763; type: cell-based; conditions: potato dextrose broth, 24 h, 37 °C, OD600 <0.1 in at least 3 of 4 wells, dose range 2 to 128 µg/mL; shaded values previously reported ref 17
How it was run: as §2

[17] = test system: Candida albicans Y-6359; type: cell-based; conditions: potato dextrose broth, 24 h, 37 °C, OD600 <0.1 in at least 3 of 4 wells, dose range 2 to 128 µg/mL; shaded values previously reported ref 17
How it was run: as §2

[18] = test system: E. cloacae 6053; type: cell-based; conditions: cation adjusted Mueller-Hinton broth, ~10^6 CFU/mL, 24 h, 37 °C, OD600 <0.1 in at least 3 of 4 wells, 2-128 μg/mL; shaded values previously reported ref 18
How it was run: as §2

[19] = test system: Aspergillus fumigatus 9648; type: cell-based; conditions: potato dextrose broth, 24 h, 37 °C, OD600 <0.1 in at least 3 of 4 wells, dose range 2 to 128 µg/mL; shaded values previously reported ref 17
How it was run: as §2

[20] = test system: vulvovaginal candidiasis infection; conditions: cited from earlier work
From the text: The dAMPs RP504, RP554 and RP557 were thus tested for their ability to treat a rodent vulvovaginal candidiasis infection. […] A daily dose with a 2% concentration lowered the CFU/sample by more than 4 logs compared to the con ...

[21] = test system: P. aeruginosa 6186; type: cell-based, Pseudomonas aeruginosa; conditions: cation adjusted Mueller-Hinton broth, ~10^6 CFU/mL, 24 h, 37 °C, OD600 <0.1 in at least 3 of 4 wells, 2-128 μg/mL; shaded values previously reported ref 18
How it was run: as §2

[22] = test system: P. aeruginosa ATCC 19660; type: cell-based, Pseudomonas aeruginosa; conditions: cation adjusted Mueller-Hinton broth, ~10^6 CFU/mL, 24 h, 37 °C, OD600 <0.1 in at least 3 of 4 wells, 2-128 μg/mL; shaded values previously reported ref 18
How it was run: as §2

[23] = test system: P. aeruginosa ATCC 27853; type: cell-based, Pseudomonas aeruginosa; conditions: cation adjusted Mueller-Hinton broth, ~10^6 CFU/mL, 24 h, 37 °C, OD600 <0.1 in at least 3 of 4 wells, 2-128 μg/mL; shaded values previously reported ref 18
How it was run: as §2

[24] = test system: MRSA ATCC 33592; type: cell-based, Staphylococcus aureus; conditions: cation adjusted Mueller-Hinton broth, ~10^6 CFU/mL, 24 h, 37 °C, OD600 <0.1 in at least 3 of 4 wells, 2-128 μg/mL; shaded values previously reported ref 18
How it was run: as §2

CC[C@H](C)[C@@H]1NC(=O)CNC(=O)[C@H](CCCCN)NC(=O)[C@H](Cc2ccc(O)cc2)NC(=O)[C@@H]2CSSC[C@H](NC1=O)C(=O)N[C@@H](Cc1ccccc1)C(=O)N[C@@H](CCCCN)C(=O)N[C@@H](CCCCN)C(=O)N[C@H](C(=O)N[C@@H](CCCCN)C(N)=O)CSSC[C@H](NC(=O)[C@H](Cc1ccccc1)NC(=O)[C@@H](N)CCCNC(=N)N)C(=O)N[C@@H](Cc1c[nH]c3ccccc13)C(=O)N[C@@H](CCCCN)C(=O)N[C@@H](C(C)C)C(=O)N2 [RP557] (H-RFCWKVCYKGICFKKCK-NH2; disulfide 3-16, 7-12)
disruption of Candida biofilm [1]: completely disrupted
disruption of preformed and mature MRSA biofilm [2]: completely disrupted
mammalian cell toxicity (in words) [3]: Limited toxicity
MIC against Candida krusei Y-27825 [4]: 16 µg/mL (≈ 7.49 µM)
MIC against Candida albicans Y-326 [5]: 16 µg/mL (≈ 7.49 µM)
MIC against E. cloacae 6054 [6]: 8 µg/mL (≈ 3.75 µM)
MIC against Aspergillus flavus MYA-3651 [7]: 64 µg/mL (≈ 30 µM)
MIC against Aspergillus flavus MYA-1004 [8]: 64 µg/mL (≈ 30 µM)
MIC against Fusarium solani NRRL 28548 [9]: 2 µg/mL (≈ 0.936 µM)
MIC against Absidia corymbifera NRRL 6251 [10]: 2 µg/mL (≈ 0.936 µM)
MIC against Candida parapsilosis Y-1761 [11]: 16 µg/mL (≈ 7.49 µM)
MIC against Mucor circinelloides NRRL 3631 [12]: 64 µg/mL (≈ 30 µM)
MIC against Aspergillus fumigatus 9651 [13]: 64 µg/mL (≈ 30 µM)
MIC against S. epidermis ATCC 51625 [14]: 8 µg/mL (≈ 3.75 µM)
MIC against Candida krusei Y-27803 [15]: 16 µg/mL (≈ 7.49 µM)
MIC against Candida parapsilosis Y-1763 [16]: 2 µg/mL (≈ 0.936 µM)
MIC against Candida albicans Y-6359 [17]: 4 µg/mL (≈ 1.87 µM)
MIC against E. cloacae 6053 [18]: 8 µg/mL (≈ 3.75 µM)
MIC against Aspergillus fumigatus 9648 [19]: 64 µg/mL (≈ 30 µM)
lowering of CFU/sample compared to control samples ([20]; daily dose with a 2% concentration, dose-response protocol): more than 4 logs
reduction of CFU/tissue sample ([20]; rodent vulvovaginal candidiasis, after three days of daily treatment): ≥ 2.5 logs
MIC against P. aeruginosa 6186 [21]: 4 µg/mL (≈ 1.87 µM)
MIC against P. aeruginosa ATCC 19660 [22]: 4 µg/mL (≈ 1.87 µM)
MIC against P. aeruginosa ATCC 27853 [23]: 4 µg/mL (≈ 1.87 µM)
MIC against MRSA ATCC 33592 [24]: 4 µg/mL (≈ 1.87 µM)

From PMC7559897, “Designed Antimicrobial Peptides Against Trauma-Related Cutaneous Invasive Fungal Wound Infections” (Journal of Fungi, 2020)
